Results on 18 molecules are retold here after patent US8106055B2, “Substituted amide compounds” (Gruenenthal GmbH, priority 2007, dated 2012).

The target in experiment [1] is T1, serotonin (5-HT) reuptake (Rattus norvegicus, UniProt P31652).
T1 construct: synaptosomes are freshly isolated from areas of the rat brain; from tissue; host or cells: rat brain synaptosomes (P2 fraction)
Nature of the experiment: Inhibition of serotonin (5HT) reuptake in synaptosomes from rat brain. The format is biochemical. As to conditions: test concentration of 10 μM; read-out: 5-HT (inhibition of reuptake of serotonin, % inhibition). The method in brief: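 Compounds screened at 10 μM and reported as percent inhibition of serotonin uptake. Uptake measured in a freshly prepared P2 synaptosomal fraction from rat brain.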

For experiment [2], the target named is T2, human bradykinin 1 receptor (B1R) (Homo sapiens, UniProt P46663).
T2 construct: expressed in transfected cells; host or cells: CHO K1 cells
T2 sequence (P46663 1-353): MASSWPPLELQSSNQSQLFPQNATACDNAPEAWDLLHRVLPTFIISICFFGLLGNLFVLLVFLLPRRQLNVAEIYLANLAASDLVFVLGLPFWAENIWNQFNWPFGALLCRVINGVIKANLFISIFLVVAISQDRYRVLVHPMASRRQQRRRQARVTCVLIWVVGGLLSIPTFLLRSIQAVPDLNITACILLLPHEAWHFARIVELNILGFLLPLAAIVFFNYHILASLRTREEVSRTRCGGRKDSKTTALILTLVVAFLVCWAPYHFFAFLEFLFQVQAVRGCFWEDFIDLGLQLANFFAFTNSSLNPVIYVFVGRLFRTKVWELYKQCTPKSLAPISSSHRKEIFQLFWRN
Nature of the experiment: Functional investigation on the human bradykinin 1 receptor (B1R), Ca2+ FLIPR assay in CHO K1 hB1R cells. The format is cell-based. As to conditions: CHO-K1, B1R antagonism human; test substance 10 μM; Ca2+ FLIPR, CHO K1 hB1R cells; read-out: B1R Ant. h [10 μM] % Inhibition. The essentials:
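Fluo-4 Ca2+ readout, peak fluorescence. Stable CHO K1 transfectants; compound pre-incubated 10-20 min, then EC80 agonist—Lys-Des-Arg9-BK for hB1R, Des-Arg9-BK for rB1R. % inhibition vs maximal inhibition; IC50 from multiple concentrations, duplicate/triplicate, ≥2 independent runs.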

T1 sequence (P31652 whole entry): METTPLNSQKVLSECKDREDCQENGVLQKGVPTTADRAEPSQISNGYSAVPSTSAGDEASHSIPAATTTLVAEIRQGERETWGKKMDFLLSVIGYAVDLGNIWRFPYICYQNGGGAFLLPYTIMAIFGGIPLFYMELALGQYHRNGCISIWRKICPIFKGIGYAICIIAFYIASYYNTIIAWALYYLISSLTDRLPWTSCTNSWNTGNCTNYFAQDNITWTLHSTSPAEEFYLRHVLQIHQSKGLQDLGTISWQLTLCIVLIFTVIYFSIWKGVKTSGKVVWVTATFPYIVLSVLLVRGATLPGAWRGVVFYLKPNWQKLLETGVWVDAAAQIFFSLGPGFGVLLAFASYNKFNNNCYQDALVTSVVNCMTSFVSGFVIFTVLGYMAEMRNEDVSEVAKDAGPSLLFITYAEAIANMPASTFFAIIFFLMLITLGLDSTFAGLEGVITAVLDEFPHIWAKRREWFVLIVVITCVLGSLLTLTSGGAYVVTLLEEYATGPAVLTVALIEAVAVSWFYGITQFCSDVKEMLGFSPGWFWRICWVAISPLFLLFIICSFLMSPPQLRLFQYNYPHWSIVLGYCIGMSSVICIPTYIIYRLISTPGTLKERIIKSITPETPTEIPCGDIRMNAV

`COc1ccc(S(=O)(=O)N2CCCC2COCC(=O)NC2CCC(C(c3cccs3)N(C)C)CC2)cc1` (stereo not drawn) [Example 162, N-(4-((dimethylamino)(thiophen-2-yl)methyl)cyclohexyl)-2-((1-(4-methoxyphenylsulfonyl)pyrrolidin-2-yl)methoxy)acetamide]: the inhibition at 10 µM in experiment [1] was 81%; in experiment [2], -5%.
With `COc1cc(C)c(S(=O)(=O)N(C)CCOCC(=O)NCCC2CCC(C(c3cccc(F)c3)N(C)C)CC2)c(C)c1C` (stereo not drawn) [Example 183, N-(2-(4-((dimethylamino)(3-fluorophenyl)methyl)cyclohexyl)ethyl)-2-(2-(4-methoxy-N,2,3,6-tetramethylphenylsulfonamido)ethoxy)acetamide], the figures for the inhibition at 10 µM in experiment [1] and in experiment [2] were 93% and 104%, respectively.
In the same order, the values of `Cc1ccc(S(=O)(=O)N2CCC(OCC(=O)NC3CCC(C(c4cccs4)N(C)C)CC3)C2)cc1` (stereo not drawn) [Example 156, N-(4-((dimethylamino)(thiophen-2-yl)methyl)cyclohexyl)-2-(1-tosylpyrrolidin-3-yloxy)acetamide] are 87% and 5%.
In the same order, the values of `COc1cc(C)c(S(=O)(=O)N(C)CCOCC(=O)NCCC2CCC(C(c3cccc(F)c3)N(C)C)CC2)c(C)c1` (stereo not drawn) [Example 197, N-(2-(4-((dimethylamino)(3-fluorophenyl)methyl)cyclohexyl)ethyl)-2-(2-(4-methoxy-N,2,6-trimethylphenylsulfonamido)ethoxy)acetamide] are 85% and 104%.
For the molecule `CN(C)C(c1cccs1)C1CCC(NC(=O)COCCN(C)S(=O)(=O)c2ccc(F)cc2)CC1` (stereo not drawn) [Example 10, N-(4-((dimethylamino)(thiophen-2-yl)methyl)cyclohexyl)-2-(2-(4-fluoro-N-methylphenylsulfonamido)ethoxy)acetamide], the figures for the inhibition at 10 µM in experiment [1] and in experiment [2] were 76% and -17%, respectively.
In the same order, the values of `CN(C)C(c1ccccc1)C1CCC(CNC(=O)COCCN(C)S(=O)(=O)c2c(Cl)cccc2Cl)CC1` (stereo not drawn) [Example 13, 2-(2-(2,6-dichloro-N-methylphenylsulfonamido)ethoxy)-N-((4-((dimethylamino)(phenyl)methyl)cyclohexyl)methyl)acetamide] are 84% and 99%.
In the same order, the values of `CN(C)C(c1cccs1)C1CCC(NC(=O)COC2CCN(S(=O)(=O)c3ccc(F)cc3)C2)CC1` (stereo not drawn) [Example 28, N-(4-((dimethylamino)(thiophen-2-yl)methyl)cyclohexyl)-2-(1-(4-fluorophenylsulfonyl)pyrrolidin-3-yloxy)acetamide] are 76% and -7%.
Turning to `COc1ccc(S(=O)(=O)N2CCCCC2COCC(=O)NCCC2CCC(C(c3cccc(F)c3)N(C)C)CC2)cc1OC` (stereo not drawn) [Example 191, 2-((1-(3,4-dimethoxyphenylsulfonyl)piperidin-2-yl)methoxy)-N-(2-(4-((dimethylamino)(3-fluorophenyl)methyl)cyclohexyl)ethyl)acetamide], the inhibition at 10 µM is 89% in experiment [1] and -16% in experiment [2].
In the same order, the values of `COc1ccc(S(=O)(=O)N2CCCCC2COCC(=O)NCC2CCC(C(c3cccc(F)c3)N(C)C)CC2)cc1` (stereo not drawn) [Example 179, N-((4-((dimethylamino)(3-fluorophenyl)methyl)cyclohexyl)methyl)-2-((1-(4-methoxyphenylsulfonyl)piperidin-2-yl)methoxy)acetamide] are 92% and 65%.
In the same order, the values of `Cc1ccc(S(=O)(=O)N(C)CCOCC(=O)NCC2CCC(C(c3ccccc3)N(C)C)CC2)cc1` (stereo not drawn) [Example 157, N-((4-((dimethylamino) (phenyl)methyl)cyclohexyl)methyl)-2-(2-(N,4-dimethylphenylsulfonamido)ethoxy)acetamide] are 88% and 5%.
In the same order, the values of `Cc1cc(C)c(S(=O)(=O)N2CCC(OCC(=O)NC3CCC(C(c4cccs4)N(C)C)CC3)C2)c(C)c1` (stereo not drawn) [Example 12, N-(4-((dimethylamino)(thiophen-2-yl)methyl)cyclohexyl)-2-(1-(mesitylsulfonyl)pyrrolidin-3-yloxy)acetamide] are 79% and 41%.
As to `CN(C)C(c1ccccc1)C1CCC(CNC(=O)COCCN(Cc2ccccc2)S(=O)(=O)c2ccccc2)CC1` (stereo not drawn) [Example 15, 2-(2-(N-benzylphenylsulfonamido)ethoxy)-N-((4-((dimethylamino)(phenyl)methyl)cyclohexyl)methyl)acetamide], the figures for the inhibition at 10 µM in experiment [1] and in experiment [2] were 99% and 11%, respectively.
In the same order, the values of `COc1cc(C)c(S(=O)(=O)N2CCCC(OCC(=O)NCC3CCC(C(c4ccccc4)N(C)C)CC3)C2)c(C)c1C` (stereo not drawn) [Example 29, N-((4-((dimethylamino)(phenyl)methyl)cyclohexyl)methyl)-2-(1-(4-methoxy-2,3,6-trimethylphenylsulfonyl)piperidin-3-yloxy)acetamide] are 93% and 35%.
On the same counts, the results for `COc1cc(C)c(S(=O)(=O)N2CCCC(OCC(=O)NC3CCC(C(c4cccs4)N(C)C)CC3)C2)c(C)c1C` (stereo not drawn) [Example 144, N-(4-((dimethylamino)(thiophen-2-yl)methyl)cyclohexyl)-2-(1-(4-methoxy-2,3,6-trimethylphenylsulfonyl)piperidin-3-yloxy)acetamide] are 87% and 20%.
On the same counts, the results for `COc1ccc(S(=O)(=O)N2CCC(OCC(=O)NCC3CCC(C(c4cccs4)N(C)C)CC3)C2)cc1OC` (stereo not drawn) [Example 23, 2-(1-(3,4-dimethoxyphenylsulfonyl)pyrrolidin-3-yloxy)-N-((4-((dimethylamino)(thiophen-2-yl)methyl)cyclohexyl)methyl)acetamide] are 82% and -25%.
As to `Cc1cc(C)c(S(=O)(=O)N2CCC(OCC(=O)NCC3CCC(C(c4ccccc4)N(C)C)CC3)C2)c(C)c1` (stereo not drawn) [Example 26, N-((4-((dimethylamino)(phenyl)methyl)cyclohexyl)methyl)-2-(1-(mesitylsulfonyl)pyrrolidin-3-yloxy)acetamide], the inhibition at 10 µM in experiment [1] was found to be 83%; in experiment [2], 51%.
In the same order, the values of `Cc1cc(C)c(S(=O)(=O)N2CCC(OCC(=O)NCC3CCC(C(c4cccs4)N(C)C)CC3)C2)c(C)c1` (stereo not drawn) [Example 27, N-((4-((dimethylamino)(thiophen-2-yl)methyl)cyclohexyl)methyl)-2-(1-(mesitylsulfonyl)pyrrolidin-3-yloxy)acetamide] are 84% and 60%.
In the same order, the values of `COc1cc(C)c(S(=O)(=O)N2CCC(CCOCC(=O)NCC3CCC(C(c4ccccc4)N(C)C)CC3)CC2)c(C)c1C` (stereo not drawn) [Example 146, N-((4-((dimethylamino)(phenyl)methyl)cyclohexyl)methyl)-2-(2-(1-(4-methoxy-2,3,6-trimethylphenylsulfonyl)piperidin-4-yl)ethoxy)acetamide] are 95% and 23%.
